Results taken from patent US12070444B2, “Modulation of molecular markers using S-equol” (Board of Regents, The University of Texas System, priority 2020, dated 2024).
“Also recorded” adds a separate entry of the source.

Assays:
[1] = system: rat hippocampal neurons; settings: cited from earlier work
[2] = system: TNBC; assay: Pilot biomarker clinical study of S-equol in TNBC (Example 12); assay type: in vivo, human
Experimental: (§1) A pilot biomarker clinical study was performed in 20 subjects with documented TNBC to determine the effect of the ERβ agonist S-equol on Ki67 an indicator of tumor cell proliferation. Tumor cell proliferation was measured by immunohistological staining for Ki-67. See, FIG. 18 for the outline of the protocol. Ki-67 is encoded by the gene MKI67 gene and is required to maintain individual mitotic chromosomes dispersed in the cytoplasm following nuclear envelope disassembly. Measuring the fraction of Ki-67-positive cells in a tumor is known to be a reliable parameter for assessing cancer patient prognosis. Subjects with TNBC are known to have very high levels of Ki67.
Patients enrolled in the study received a history, physical, laboratory assessment, radiological imaging, and diagnostic biopsies. Immunohistochemistry (IHC) of Ki67 (proliferation marker), total ERβ, and pY36-ERβ (phosphorylated ERβ, B7H1 (also known as PDL-1) and BRCA1 (breast cancer 1, early onset) were conducted using core needle biopsy tissue samples prior to treatment. Patients were given oral S-equol 50 mg, twice daily for approximately two weeks (10-21 days) prior to the scheduled oncologic surgeries or start of primary systemic therapy. Tumor samples were obtained from the surgery or the two-week repeat core needle biopsy. Post-treatment IHC evaluation of Ki67, total ERβ, phosphorylated ERβ (pY36) and BRCA1 were obtained. Ki67 reduction is a validated surrogate marker of both short and long term hormonal therapy efficacy in trials of human breast cancer and was compared pre- and post-treatment with S-equol. […] A c-DNA microarray platform was also used to discover downstream transcriptional targets of ERβ resulting from activation by S-equol.
Women eligible for the study had newly diagnosed, previously untreated, triple negative breast cancer, with an intact primary breast tumor of any size. All stages of the disease were eligible. They took S-equol during the time they underwent standard preoperative evaluation or pre-therapeutic work-up for advanced disease, such as staging procedures or central line placement. If primary surgery was performed, tissue leftover after standard diagnostic evaluation was used for the two-week biomarker assessment. […] See, FIG. 10.
A standard procedure for acquiring core biopsy with a Bard 14-gauge needle was utilized for determining TNBC prior to enrollment. Whenever possible, the tumor tissues used for IHC analyses were acquired at the same time as the diagnostic core biopsy. The tissue samples were sent for staining of total and pY36 ERβ and Ki67, and analyzed. Testing for ERα, PR, and HER-2 was performed using validated methods. TNBC tumors were defined as less than 5% nuclear staining of carcinoma cells for ERα and PR and either 0, 1, or 2+ staining for HER-2 by IHC. Whole-Genome DASL HT platform from Illumina, which is designed for gene expression profiling with extremely low input of RNA (50 pg), was used to interrogate paired FFPE tissue obtained before and after exposure to S-equol.
The primary analysis estimated the geometric mean change of the Ki67 expression from baseline to two weeks. This was performed using a one-sample t-test of the pre/post differences in the log-transformed data, and summarized by the 95% confidence interval. […]

[3] = system: melanoma; assay: Pilot biomarker clinical study of S-equol in melanoma (Example 7, present tense); assay type: in vivo, human; settings: melanoma patients, oral S-equol 50 mg twice daily 10-21 days
Experimental: as §1, with “study is” for “study was”, “documented melanoma” for “documented TNBC”, “proliferation is” for “proliferation was”, “Ki-67.” for “Ki-67. See, FIG. 18 for the outline of the protocol.”
Patients enrolled in the study receive a history, physical, laboratory assessment, radiological imaging, and diagnostic biopsies. Immunohistochemistry (IHC) of Ki67 (proliferation marker), total ERβ, and pY36-ERβ (phosphorylated ERβ), B7H1 (also known as PDL-1) and MIA and S100B are conducted using core needle biopsy tissue samples prior to treatment. Patients are given oral S-equol 50 mg, twice daily for approximately two weeks (10-21 days) prior to the scheduled oncologic surgeries or start of primary systemic therapy. […]
A standard procedure for acquiring core biopsy is utilized for determining melanoma prior to enrollment. […] The tissue samples are sent for staining of total and pY36, ERβ and Ki67, and analyzed. […]

[4] = of 17 evaluable patients, S-equol 50 mg twice daily 10-21 days

Oc1ccc([C@H]2COc3cc(O)ccc3C2)cc1 [S-equol]
respiratory and maximal glycolysis fluxes [1]: increase | change in Ki67 pre- vs post-treatment (in words) ([2]; TNBC patients, oral S-equol 50 mg twice daily for 10-21 days): measurable decrease in Ki67; also recorded: measurable decline in Ki67 | patients with 0-20% reduction in Ki-67 [2, 4]: 7 patients | patients with greater than 20% reduction in Ki-67 [2, 4]: one | patients with greater than 30% reduction in Ki-67 [2, 4]: 4 patients | patients with no reduction in Ki-67 [2, 4]: 5 patients | change in Ki67 pre- vs post-treatment (in words) [3]: measurable decrease in Ki67; also recorded: measurable decline in Ki67
